The record followed here is US20030114445A1, “N3-substituted 6-anilinopyrimidines and methods to treat-Gram-positive bacterial and mycoplasmal infections” (priority 2001, published 2003).

For orientation: MIC means the smallest concentration in the dilution series that meets the test's criterion for growth inhibition. The Ki is the dissociation constant of the complex between target and ligand, obtained from inhibition or displacement.

One test has as its system S.aureus (Smith). Briefly: Inhibition of bacterial growth on agar plates (MIC). The conditions noted are these: Staphylococcus aureus, 37° C., 24 hours. It is filed as cell-based. The method, then: (§1) Each compound is assayed against a panel of Bacillus, Enterococcus and Staphylococcus, and a Gram-negative bacterium Escherichia coli as negative control, grown in appropriate plate media solidified with 1.3% agar-agar. Stock solutions of the compounds in dimethylsulfoxide or water, depending on solubility, are added to sterile medium at a temperature of 60° C. […] One tenth mL of diluted bacteria containing 500-1000 colony-forming units (CFU) are plated and spread, and the plates incubated at 37° C. for 24 hours. MIC (minimum inhibitory concentration) is equivalent to the lowest concentration at which growth, i.e. colony formation, is not observed.

A further test concerns E. fecalis. The test is described as above. In kind it is cell-based. The following applies: 37° C., 24 hours. Here is the method: as §1
The test system of a further test is B. subtilis. Described as above. It is filed as cell-based. The conditions noted are these: Bacillus subtilis, 37° C., 24 hours. Here is the method:
as §1

For another test, the system named is E. fecium. The test is described as above. In kind it is cell-based. The following applies: 37° C., 24 hours. Here is the method: as §1
A further test has as its target B.subtilis pol IIIC (Bacillus subtilis, UniProt P13267). Briefly: biochemical. Here is the method:
DNA pol activity was assayed as described in Barnes et al., Nuc. Acids Res., 6:1203-19 (1979), using activated “nicked” calf-thymus DNA as template primer, 10 pM [^3H-methyl]-dTTP as the labelled dNTP substrate, and dATP, dCTP, and dGTP at 25 μM each.
Inhibitory activity of the compounds is determined by measuring the ability of the agent to inhibit enzyme-catalyzed incorporation of [^3H]-dTMP into nicked calf thymus DNA in the absence of the competitor dGTP or dATP (“truncated assay”) (see G. E. Wright and N. C. Brown, Inhibition of Bacillus subtilis DNA Polymerase III by Arylhydrazinopyrimidines: Novel Properties of 2-Thiouracil Derivatives, Biochim. Biophys. Acta 432:37-48 (1976)). Purified pol IIIC is added to a buffered solution containing Mg^2+, DTT, glycerol, nicked calf thymus DNA, saturating concentrations of dATP, dCTP, dTTP and [^3H]-dTTP. Reaction mixtures are incubated at 30° C. for 10 minutes, quenched and filtered, and radioactivity in the acid-insoluble material measured by scintillation counting. Experiments are done in triplicate. Inhibitors are assayed by addition of several dilutions of a stock solution of inhibitor (DMSO or water, depending on solubility) before enzyme addition. […] The truncated assay, i.e. exclusion of the competitive substrate dGTP or dATP, depending upon whether the compound is a uracil derivative or an isocytosine derivative, respectively, allows for the direct determination of apparent inhibitor constants (K,) in this assay system.

In brackets after ≈: the same amount, converted by molar mass.

B.subtilis pol IIIC, sequence (P13267 whole entry): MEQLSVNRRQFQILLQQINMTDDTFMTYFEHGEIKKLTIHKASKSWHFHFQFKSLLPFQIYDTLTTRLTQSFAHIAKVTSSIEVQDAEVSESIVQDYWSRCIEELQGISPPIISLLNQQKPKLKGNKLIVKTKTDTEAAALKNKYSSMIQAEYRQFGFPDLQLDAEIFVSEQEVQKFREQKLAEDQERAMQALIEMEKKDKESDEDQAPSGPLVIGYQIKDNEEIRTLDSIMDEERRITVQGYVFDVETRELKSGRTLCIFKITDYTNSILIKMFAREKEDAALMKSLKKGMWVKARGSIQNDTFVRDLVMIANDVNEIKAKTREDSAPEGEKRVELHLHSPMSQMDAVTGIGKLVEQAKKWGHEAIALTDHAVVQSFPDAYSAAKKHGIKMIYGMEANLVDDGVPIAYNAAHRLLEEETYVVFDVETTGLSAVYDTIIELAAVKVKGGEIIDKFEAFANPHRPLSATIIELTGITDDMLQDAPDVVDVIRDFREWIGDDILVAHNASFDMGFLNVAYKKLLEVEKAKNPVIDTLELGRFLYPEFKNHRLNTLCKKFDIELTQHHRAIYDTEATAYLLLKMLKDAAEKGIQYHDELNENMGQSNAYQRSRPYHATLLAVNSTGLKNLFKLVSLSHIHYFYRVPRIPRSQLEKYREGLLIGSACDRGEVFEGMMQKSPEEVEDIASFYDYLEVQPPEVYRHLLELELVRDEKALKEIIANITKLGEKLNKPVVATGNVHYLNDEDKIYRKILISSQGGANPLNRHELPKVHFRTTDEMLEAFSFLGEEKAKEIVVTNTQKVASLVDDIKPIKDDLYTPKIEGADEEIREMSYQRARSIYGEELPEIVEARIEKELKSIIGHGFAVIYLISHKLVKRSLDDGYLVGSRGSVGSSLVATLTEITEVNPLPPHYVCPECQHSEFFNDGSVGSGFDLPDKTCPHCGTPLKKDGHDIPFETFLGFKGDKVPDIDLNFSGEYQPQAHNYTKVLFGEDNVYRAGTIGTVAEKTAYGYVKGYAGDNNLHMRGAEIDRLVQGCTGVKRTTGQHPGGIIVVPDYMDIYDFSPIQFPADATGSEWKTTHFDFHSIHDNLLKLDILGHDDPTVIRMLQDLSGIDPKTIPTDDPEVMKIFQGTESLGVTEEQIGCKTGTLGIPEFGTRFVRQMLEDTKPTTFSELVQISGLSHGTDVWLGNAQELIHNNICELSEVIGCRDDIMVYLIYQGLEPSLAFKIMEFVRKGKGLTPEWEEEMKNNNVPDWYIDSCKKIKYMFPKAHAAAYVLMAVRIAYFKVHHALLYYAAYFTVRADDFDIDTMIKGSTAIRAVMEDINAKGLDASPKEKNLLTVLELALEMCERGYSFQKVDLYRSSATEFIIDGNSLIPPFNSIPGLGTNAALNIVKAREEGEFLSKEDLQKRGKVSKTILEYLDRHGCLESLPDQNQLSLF

On to `CCc1cc(Nc2cc(=O)n(CCCCNC(=O)C3CC3)c(=O)[nH]2)ccc1C` [Compound 49, 3-{4-[(cyclopropylcarbonyl)amino]butyl}-6-(3-ethyl-4-methylanilino)uracil], for which the MIC with S.aureus (Smith) was 5 µg/mL (≈ 13 µM); in the test on E. fecalis, 5 µg/mL (≈ 13 µM); against B. subtilis, 5 µg/mL (≈ 13 µM); in the test with E. fecium it was 2.5 µg/mL (≈ 6.5 µM). For the same molecule, at B.subtilis pol IIIC, the Ki stood at 82 nM.
As for `CCc1cc(Nc2cc(=O)n(CCCCNC(=O)CCl)c(=O)[nH]2)ccc1C` [Compound 50, 3-{4-[(chloromethylcarbonyl)amino]butyl}-6-(3-ethyl-4-methylanilino)uracil], the MIC in the test with S.aureus (Smith) amounted to 5 µg/mL (≈ 12.7 µM); against E. fecalis, 5 µg/mL (≈ 12.7 µM); against B. subtilis it was 2.5 µg/mL (≈ 6.36 µM); in the test on E. fecium, 10 µg/mL (≈ 25.5 µM). At B.subtilis pol IIIC, this molecule yielded a Ki of 35 nM.
On to `CCc1cc(Nc2cc(=O)n(CCCCOC(=O)CCl)c(=O)[nH]2)ccc1C` [Compound 51, 3-[4-(2-chloroacetoxy)butyl]-6-(3-ethyl-4-methylanilino)uracil], for which the MIC worked out at 10 µg/mL (≈ 25.4 µM) against S.aureus (Smith), 2.5 µg/mL (≈ 6.35 µM) in the test with E. fecalis, 0.313 µg/mL (≈ 0.795 µM) against B. subtilis and 5 µg/mL (≈ 12.7 µM) in the test with E. fecium. The molecule also returned a Ki at B.subtilis pol IIIC of 40 nM.
On the same counts, the results for `CCc1cc(Nc2cc(=O)n(CCCCN3CCN(c4nc(C)cc(C(=O)O)n4)CC3)c(=O)[nH]2)ccc1C` [Compound 60, 3-{4-[4-(6-methyl-4-carboxy-2-pyrimidinyl)-1-piperazinyl]butyl}-6-(3-ethyl-4-methylanilino)uracil] are 40 µg/mL (≈ 76.7 µM), 40 µg/mL (≈ 76.7 µM), 40 µg/mL (≈ 76.7 µM), 40 µg/mL (≈ 76.7 µM) and 16 nM.
Consider `CCc1cc(Nc2cc(=O)n(CCCCN3CCN(c4nc(C)cc(C(=O)OC)n4)CC3)c(=O)[nH]2)ccc1C` [Compound 61, 3-{4-[4-(6-methyl-4-methoxycarbonyl-2-pyrimidinyl)-1-piperazinyl]butyl}-6-(3-ethyl-4-methylanilino)uracil], for which the MIC with S.aureus (Smith) was determined as 40 µg/mL (≈ 74.7 µM); in the test on E. fecalis it was 20 µg/mL (≈ 37.3 µM); against B. subtilis it was 10 µg/mL (≈ 18.7 µM); with E. fecium, 20 µg/mL (≈ 37.3 µM). This molecule also yielded a Ki at B.subtilis pol IIIC of 66 nM.
With `CCc1cc(Nc2cc(=O)n(CCCCN3CCN(c4ncc(C(=O)OC)c(C(F)(F)F)n4)CC3)c(=O)[nH]2)ccc1C` [Compound 62, 3-{4-[4-(4-trifluoromethyl-5-methoxycarbonyl-2-pyrimidinyl)-1-piperazinyl]butyl}-6-(3-ethyl-4-methylanilino)uracil], the MIC against S.aureus (Smith), against E. fecalis, in the test on B. subtilis and in the test with E. fecium was 80 µg/mL (≈ 136 µM) in each case. At B.subtilis pol IIIC, the Ki turned out to be 550 nM.
In the case of `CCc1cc(Nc2cc(=O)n(CCCCCNC[C@H]3CCNC3)c(=O)[nH]2)ccc1C` [Compound 63, 3(S)-{5-[(3-pyrrolidinyl)methylamino]pentyl}-6-(3-ethyl-4methylanilino)uracil], the MIC against S.aureus (Smith) was 40 µg/mL (≈ 96.7 µM); in the test with E. fecalis it was 80 µg/mL (≈ 193 µM); in the test on B. subtilis, 20 µg/mL (≈ 48.4 µM); in the test on E. fecium it was 80 µg/mL (≈ 193 µM). The molecule also came in with a Ki on B.subtilis pol IIIC of 112 nM.
As to `CCc1cc(Nc2cc(=O)n(CCCCN3CCN(c4ccc(C(F)(F)F)cc4[N+](=O)[O-])CC3)c(=O)[nH]2)ccc1C` [Compound 64, 3-{4-[4-(2-nitro-4-trifluoromethylphenyl)-1-piperazinyl]butyl}-6-(3-ethyl-4-methylanilino)uracil], the MIC in the test with S.aureus (Smith), against E. fecalis, against B. subtilis and in the test with E. fecium was 80 µg/mL (≈ 139 µM) throughout. The molecule further came in with an inhibitory constant (Ki) at B.subtilis pol IIIC of 58800 nM.
For `CCc1cc(Nc2cc(=O)n(CCCCN3CCN(c4ncc(C(=O)O)c(C(F)(F)F)n4)CC3)c(=O)[nH]2)ccc1C` [Compound 65, 3-{4-[4-(4-trifluoromethyl-5-carboxy-2-pyrimidinyl)-1-piperazinyl]butyl}-6-(3-ethyl-4-methylanilino)uracil], the MIC against S.aureus (Smith) was 80 µg/mL (≈ 139 µM); against E. fecalis, 80 µg/mL (≈ 139 µM); against B. subtilis it was 80 µg/mL (≈ 139 µM); in the test on E. fecium, 40 µg/mL (≈ 69.5 µM). Also, the Ki on B.subtilis pol IIIC amounted to 113 nM.
For `CCc1cc(Nc2cc(=O)n(CCCCCNc3ncc(C#N)c(N)n3)c(=O)[nH]2)ccc1C` [Compound 66, 3-{5-[(4-amino-5-cyano-2-pyrimidinyl)amino]pentyl}-6-(3-ethyl-4-methylanilino)uracil], the MIC with S.aureus (Smith), against E. fecalis, against B. subtilis and against E. fecium was 80 µg/mL (≈ 178 µM) each time. Besides, at B.subtilis pol IIIC, the Ki was determined as 39500 nM.
Regarding `CCc1cc(Nc2cc(=O)n(CCCCCn3cnc4c(=O)n(C)c(=O)n(C)c43)c(=O)[nH]2)ccc1C` [Compound 67, 3-{5-[9-(1,3-dimethyl-2,6-dioxopurinyl)]pentyl}-6-(3-ethyl-4-methylanilino)uracil], the MIC with S.aureus (Smith) worked out at 10 µg/mL (≈ 20.3 µM); in the test with E. fecalis, 20 µg/mL (≈ 40.5 µM); in the test with B. subtilis, 2.5 µg/mL (≈ 5.07 µM); against E. fecium it was 10 µg/mL (≈ 20.3 µM). The molecule also displayed a Ki at B.subtilis pol IIIC of 60 nM.
On to `CCc1cc(Nc2cc(=O)n(CCCCCN3CCc4c([nH]c5ccc(OC)cc45)C3C(=O)O)c(=O)[nH]2)ccc1C` (stereo not drawn) [Compound 68, 3-[5-(1-carboxy-6-methoxy-2,3,4,9-tetrahydro-1H-β-carboline-2-yl)pentyl]-6-(3-ethyl-4-methylanilino)uracil], for which the MIC came out at 40 µg/mL (≈ 71.5 µM) against S.aureus (Smith), 80 µg/mL (≈ 143 µM) against E. fecalis, 20 µg/mL (≈ 35.7 µM) in the test on B. subtilis and 80 µg/mL (≈ 143 µM) in the test with E. fecium. In addition, at B.subtilis pol IIIC, affinity was put at a Ki of 288 nM.
With `CCc1cc(Nc2cc(=O)n(CCCCCN3CCc4c([nH]c5ccc(OC)cc45)C3)c(=O)[nH]2)ccc1C` [Compound 69], the MIC in the test with S.aureus (Smith) stood at 10 µg/mL (≈ 19.4 µM); with E. fecalis, 20 µg/mL (≈ 38.8 µM); against B. subtilis it was 5 µg/mL (≈ 9.7 µM); against E. fecium, 20 µg/mL (≈ 38.8 µM). At B.subtilis pol IIIC, this molecule gave a Ki of 109 nM.
On to `CCc1cc(Nc2cc(=O)n(CCCCCNC(=O)c3cccs3)c(=O)[nH]2)ccc1C` [Compound 70, 3-[5-(2-thiophenecarboxamido)pentyl]-6-(3-ethyl-4-methylanilino)uracil], for which the MIC in the test on S.aureus (Smith) was found to be 10 µg/mL (≈ 22.7 µM); in the test on E. fecalis, 5 µg/mL (≈ 11.3 µM); in the test on B. subtilis it was 1.25 µg/mL (≈ 2.84 µM); in the test on E. fecium it was 5 µg/mL (≈ 11.3 µM). The molecule also had a Ki at B.subtilis pol IIIC of 65 nM.
Regarding `CCCCC1(O)CCN(CCCCCn2c(=O)cc(Nc3ccc(C)c(CC)c3)[nH]c2=O)CC1` [Compound 71, 3-{5-[1-(4-hydroxy-4-butylpiperidinyl)]pentyl}-6-(3-ethyl-4-methylanilino)uracil], the MIC against S.aureus (Smith) amounted to 10 µg/mL (≈ 21.2 µM); in the test on E. fecalis, 10 µg/mL (≈ 21.2 µM); against B. subtilis, 5 µg/mL (≈ 10.6 µM); in the test on E. fecium, 10 µg/mL (≈ 21.2 µM). Moreover, at B.subtilis pol IIIC, the Ki was determined as 2100 nM.
Take `CCc1cc(Nc2cc(=O)n(CCCCCN3CC=C(c4cccs4)CC3)c(=O)[nH]2)ccc1C` [Compound 72, 3-{5-[1-(4-(thiophen-2-yl)-1,2,3,6-tetrahydropyridinyl)]pentyl}-6-(3-ethyl-4-methylanilino)uracil]: the MIC was 20 µg/mL (≈ 41.8 µM) in the test with S.aureus (Smith), 20 µg/mL (≈ 41.8 µM) in the test with E. fecalis, 5 µg/mL (≈ 10.4 µM) with B. subtilis and 40 µg/mL (≈ 83.6 µM) in the test on E. fecium. The Ki on B.subtilis pol IIIC amounted to 77 nM.
`CCc1cc(Nc2cc(=O)n(CCCCCN3CC=C(c4cccc5ccsc45)CC3)c(=O)[nH]2)ccc1C` [Compound 73, 3-{5-[1-(4-(benzo[b]thiophen-7-yl)-1,2,3,6-tetrahydropyridinyl)]pentyl}-6-(3-ethyl-4-methylanilino)uracil]: the MIC with S.aureus (Smith) is 10 µg/mL (≈ 18.9 µM); in the test with E. fecalis, > 80 µg/mL; with B. subtilis, 10 µg/mL (≈ 18.9 µM); in the test on E. fecium, > 80 µg/mL. Moreover, the Ki at B.subtilis pol IIIC stood at 80 nM.
For the molecule `CCc1cc(Nc2cc(=O)n(CCCCNCCCCn3cc(C(=O)O)c(=O)c4cc(F)c(Cl)cc43)c(=O)[nH]2)ccc1C` [Compound 74, 3-{4-[4-(3-carboxy-4-oxo-6-fluoro-7-chloroquinoline-1-yl)butylamino]butyl}-6-(3-ethyl-4-methylanilino)uracil], the MIC in the test on S.aureus (Smith), in the test with E. fecalis, against B. subtilis and in the test with E. fecium was 20 µg/mL (≈ 32.7 µM) each time. At B.subtilis pol IIIC, this molecule came in with a Ki of 63 nM.
Consider `CCc1cc(Nc2cc(=O)n(CCCCCN3CC=C(c4ccc(F)cc4)CC3)c(=O)[nH]2)ccc1C` [Compound 75], for which the MIC against S.aureus (Smith), against E. fecalis, in the test with B. subtilis and with E. fecium was 5 µg/mL (≈ 10.2 µM) each time. Affinity on B.subtilis pol IIIC was put at a Ki of 98 nM.
